Laboratory results as given in PMC4503722, “Novel Phenotypic Outcomes Identified for a Public Collection of Approved Drugs from a Publicly Accessible Panel of Assays” (PLoS ONE, 2015).

Experiments:
[1] = target: T1, hFLT3 (Homo sapiens, UniProt P36888); assay: Cerep LANCE kinase assay hFLT3 (S1 assay 35); format: biochemical; conditions: for hFLT3 LANCE IC50/EC50: assay number 35
T1 construct: purchased Cerep (LANCE kinase assay platform, contract assay)

[2] = tested on: endothelial tube formation in co-cultures of ECFCs and ADSCs treated with VEGF; assay: cells; format: cell-based, human
[3] = tested on: alkaline phosphatase (ALP) activity in C2C12 cells; format: cell-based; conditions: concentration response; for WntCondMedia_Alk Phos C2C12 IC50/EC50: assay number 6
[4] = target: T2, hGSK3b (Homo sapiens, UniProt P49841); assay: Cerep LANCE kinase assay hGSK3b (S1 assay 34); format: biochemical; conditions: for hGSK3b LANCE IC50/EC50: assay number 34
T2 construct: purchased Cerep (LANCE kinase assay platform, contract assay)
T2 sequence (P49841 whole entry): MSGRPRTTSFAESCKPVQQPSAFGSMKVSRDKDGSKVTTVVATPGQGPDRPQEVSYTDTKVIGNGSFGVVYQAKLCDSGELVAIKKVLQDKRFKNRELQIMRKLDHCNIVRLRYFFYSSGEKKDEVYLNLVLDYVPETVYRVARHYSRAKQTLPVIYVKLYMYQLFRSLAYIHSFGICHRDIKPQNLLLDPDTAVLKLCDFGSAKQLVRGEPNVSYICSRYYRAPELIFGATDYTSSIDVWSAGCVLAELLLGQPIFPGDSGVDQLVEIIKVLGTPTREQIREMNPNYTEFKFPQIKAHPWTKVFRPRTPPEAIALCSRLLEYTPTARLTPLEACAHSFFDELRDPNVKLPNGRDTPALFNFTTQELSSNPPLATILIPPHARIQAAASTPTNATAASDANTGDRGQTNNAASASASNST

[5] = target: T3, hJAK2 (Homo sapiens, UniProt O60674); assay: Cerep LANCE kinase assay hJAK2 (S1 assay 33); format: biochemical; conditions: for hJAK2 LANCE IC50/EC50: assay number 33
T3 construct: purchased Cerep (LANCE kinase assay platform, contract assay)
T3 sequence (O60674 whole entry): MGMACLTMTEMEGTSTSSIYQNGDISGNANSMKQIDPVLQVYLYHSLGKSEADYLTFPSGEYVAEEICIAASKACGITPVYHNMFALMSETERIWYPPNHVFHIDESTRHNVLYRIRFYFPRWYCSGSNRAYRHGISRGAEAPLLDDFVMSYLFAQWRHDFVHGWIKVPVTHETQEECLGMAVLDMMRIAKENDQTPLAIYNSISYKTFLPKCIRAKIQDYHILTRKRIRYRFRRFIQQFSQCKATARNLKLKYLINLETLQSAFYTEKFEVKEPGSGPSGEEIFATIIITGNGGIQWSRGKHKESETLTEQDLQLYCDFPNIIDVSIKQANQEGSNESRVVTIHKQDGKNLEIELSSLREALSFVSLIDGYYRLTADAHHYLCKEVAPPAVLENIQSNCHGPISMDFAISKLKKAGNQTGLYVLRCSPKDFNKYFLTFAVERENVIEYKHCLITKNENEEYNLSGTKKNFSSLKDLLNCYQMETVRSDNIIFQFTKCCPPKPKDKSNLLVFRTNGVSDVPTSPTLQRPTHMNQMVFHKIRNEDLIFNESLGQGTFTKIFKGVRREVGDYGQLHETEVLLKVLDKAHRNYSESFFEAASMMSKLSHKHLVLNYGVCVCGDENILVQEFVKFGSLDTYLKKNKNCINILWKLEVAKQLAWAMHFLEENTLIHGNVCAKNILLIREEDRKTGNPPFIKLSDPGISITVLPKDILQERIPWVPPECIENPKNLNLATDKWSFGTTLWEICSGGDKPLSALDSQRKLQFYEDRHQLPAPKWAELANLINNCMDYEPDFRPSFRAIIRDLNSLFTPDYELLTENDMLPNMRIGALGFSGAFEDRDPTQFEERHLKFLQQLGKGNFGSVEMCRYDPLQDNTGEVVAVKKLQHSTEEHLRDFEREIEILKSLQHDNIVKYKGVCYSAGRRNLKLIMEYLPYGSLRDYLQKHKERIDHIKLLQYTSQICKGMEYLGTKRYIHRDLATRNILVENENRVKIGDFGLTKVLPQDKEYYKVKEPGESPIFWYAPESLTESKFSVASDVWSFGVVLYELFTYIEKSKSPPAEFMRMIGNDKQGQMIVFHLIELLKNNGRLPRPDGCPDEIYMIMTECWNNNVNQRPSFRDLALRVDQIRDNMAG

[6] = tested on: nuclear β-catenin in C2C12 cells; assay: cells; format: cell-based; conditions: concentration response; for WntCondMedia_bCatenin C2C12 IC50/EC50: assay number 5
[7] = target: T4, hKDR (Homo sapiens, UniProt P35968); assay: Cerep LANCE kinase assay hKDR (S1 assay 32); format: biochemical; conditions: for hKDR LANCE IC50/EC50: assay number 32
T4 construct: purchased Cerep (LANCE kinase assay platform, contract assay)
T4 sequence (P35968 20-1356): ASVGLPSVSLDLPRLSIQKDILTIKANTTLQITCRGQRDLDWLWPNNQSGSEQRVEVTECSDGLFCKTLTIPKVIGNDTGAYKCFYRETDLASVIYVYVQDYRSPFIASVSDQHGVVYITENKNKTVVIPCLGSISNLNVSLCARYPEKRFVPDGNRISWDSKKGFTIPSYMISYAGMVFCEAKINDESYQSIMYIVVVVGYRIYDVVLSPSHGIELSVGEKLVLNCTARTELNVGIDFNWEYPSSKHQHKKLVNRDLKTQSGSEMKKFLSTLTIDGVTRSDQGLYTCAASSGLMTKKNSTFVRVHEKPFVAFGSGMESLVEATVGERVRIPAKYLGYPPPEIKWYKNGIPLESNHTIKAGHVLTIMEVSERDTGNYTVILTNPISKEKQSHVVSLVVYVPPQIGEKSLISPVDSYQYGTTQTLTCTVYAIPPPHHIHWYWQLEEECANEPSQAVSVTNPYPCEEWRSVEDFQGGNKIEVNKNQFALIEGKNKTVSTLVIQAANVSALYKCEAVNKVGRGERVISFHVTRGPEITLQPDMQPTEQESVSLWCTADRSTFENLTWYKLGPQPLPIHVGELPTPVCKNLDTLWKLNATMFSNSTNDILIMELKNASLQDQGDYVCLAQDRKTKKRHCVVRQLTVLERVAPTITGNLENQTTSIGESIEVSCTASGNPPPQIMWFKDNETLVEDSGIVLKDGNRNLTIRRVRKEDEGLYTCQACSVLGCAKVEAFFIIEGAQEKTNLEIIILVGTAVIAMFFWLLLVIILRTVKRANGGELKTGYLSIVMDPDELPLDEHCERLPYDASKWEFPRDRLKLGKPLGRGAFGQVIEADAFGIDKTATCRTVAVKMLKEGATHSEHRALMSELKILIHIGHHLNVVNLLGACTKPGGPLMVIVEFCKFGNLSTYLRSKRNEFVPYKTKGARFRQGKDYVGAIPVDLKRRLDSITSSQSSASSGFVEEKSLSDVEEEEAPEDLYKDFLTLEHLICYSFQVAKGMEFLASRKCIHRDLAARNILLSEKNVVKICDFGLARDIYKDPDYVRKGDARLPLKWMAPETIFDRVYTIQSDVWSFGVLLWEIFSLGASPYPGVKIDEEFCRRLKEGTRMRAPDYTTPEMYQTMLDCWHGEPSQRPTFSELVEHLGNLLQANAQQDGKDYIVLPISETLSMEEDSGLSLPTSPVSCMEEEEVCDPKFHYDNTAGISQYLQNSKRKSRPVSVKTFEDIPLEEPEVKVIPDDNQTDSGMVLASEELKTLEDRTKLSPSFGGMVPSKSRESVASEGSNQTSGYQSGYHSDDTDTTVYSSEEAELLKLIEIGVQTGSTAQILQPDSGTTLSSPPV

[8] = target: T5, hp70S6K1 (RPS6KB1) (Homo sapiens, UniProt P23443); assay: Cerep LANCE kinase assay hp70S6K1 (S1 assay 31); format: biochemical; conditions: for hp70S6K1 LANCE IC50/EC50: assay number 31
T5 construct: purchased Cerep (LANCE kinase assay platform, contract assay)
T5 sequence (P23443 whole entry): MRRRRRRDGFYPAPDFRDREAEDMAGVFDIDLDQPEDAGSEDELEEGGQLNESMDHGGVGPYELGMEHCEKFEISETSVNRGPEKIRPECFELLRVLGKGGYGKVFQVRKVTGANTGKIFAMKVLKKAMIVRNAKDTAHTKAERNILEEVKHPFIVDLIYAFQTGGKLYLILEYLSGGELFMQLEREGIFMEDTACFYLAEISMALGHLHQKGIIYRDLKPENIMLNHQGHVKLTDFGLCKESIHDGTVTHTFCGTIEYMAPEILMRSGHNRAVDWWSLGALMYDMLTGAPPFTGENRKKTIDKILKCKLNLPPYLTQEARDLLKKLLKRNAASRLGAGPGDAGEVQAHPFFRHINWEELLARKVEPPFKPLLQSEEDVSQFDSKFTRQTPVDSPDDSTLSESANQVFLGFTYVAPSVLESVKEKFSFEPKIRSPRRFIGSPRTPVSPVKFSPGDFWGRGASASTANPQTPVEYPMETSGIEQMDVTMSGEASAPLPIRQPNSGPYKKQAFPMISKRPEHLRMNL

[9] = tested on: ECFC/ADSC co-culture cell nuclei number
[10] = tested on: HeLa cells; assay: cells; format: cell-based; conditions: for Hela CellCycMod PI 2N IC50/EC50: assay number 14; for Hela CellCycMod PI 4N IC50/EC50: assay number 16; for Hela CellCycMod PI MI IC50/EC50: assay number 17; for Hela CellCycMod PI Cell Number IC50/EC50: assay number 18
[11] = tested on: HT-29; assay: cells; format: cell-based; conditions: basal
[12] = tested on: SNU-C1; assay: cells; format: cell-based; conditions: basal
[13] = tested on: RKO; assay: cells; format: cell-based; conditions: basal
[14] = tested on: HCT116; assay: cells; format: cell-based; conditions: basal
[15] = tested on: SW480; assay: cells; format: cell-based; conditions: basal
[16] = tested on: Colo320; assay: cells; format: cell-based; conditions: basal
[17] = tested on: HCT116 cells treated with a GSK3β inhibitor; assay: cells; format: cell-based; conditions: GSK3b inh pretreated
[18] = tested on: DLD-1; assay: cells; format: cell-based; conditions: basal

T1 sequence (P36888 27-993): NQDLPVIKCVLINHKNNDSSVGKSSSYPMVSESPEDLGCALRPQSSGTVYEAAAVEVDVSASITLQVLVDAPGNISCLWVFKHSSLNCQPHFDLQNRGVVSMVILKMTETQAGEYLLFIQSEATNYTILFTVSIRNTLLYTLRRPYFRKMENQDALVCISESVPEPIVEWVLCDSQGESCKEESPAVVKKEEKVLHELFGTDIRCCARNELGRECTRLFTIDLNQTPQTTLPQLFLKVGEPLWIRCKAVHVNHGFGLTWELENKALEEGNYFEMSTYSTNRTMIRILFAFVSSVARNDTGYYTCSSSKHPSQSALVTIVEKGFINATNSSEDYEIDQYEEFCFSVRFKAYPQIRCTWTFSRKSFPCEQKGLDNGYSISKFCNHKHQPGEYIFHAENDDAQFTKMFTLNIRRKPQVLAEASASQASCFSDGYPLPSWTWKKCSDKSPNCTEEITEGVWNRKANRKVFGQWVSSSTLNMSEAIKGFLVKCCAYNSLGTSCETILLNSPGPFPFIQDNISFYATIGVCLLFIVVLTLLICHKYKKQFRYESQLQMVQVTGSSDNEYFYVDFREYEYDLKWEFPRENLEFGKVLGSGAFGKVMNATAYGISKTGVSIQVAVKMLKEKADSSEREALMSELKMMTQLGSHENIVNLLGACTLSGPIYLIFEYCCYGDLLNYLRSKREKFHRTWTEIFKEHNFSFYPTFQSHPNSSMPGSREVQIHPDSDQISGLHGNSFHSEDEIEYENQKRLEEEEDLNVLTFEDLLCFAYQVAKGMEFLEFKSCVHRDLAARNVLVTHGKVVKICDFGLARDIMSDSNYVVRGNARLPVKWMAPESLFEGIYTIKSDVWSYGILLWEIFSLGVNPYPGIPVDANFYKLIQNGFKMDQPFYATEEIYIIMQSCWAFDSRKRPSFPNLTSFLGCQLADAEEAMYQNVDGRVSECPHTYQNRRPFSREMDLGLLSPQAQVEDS

Row | Structure (SMILES) | hFLT3 LANCE IC50/EC50 [1] [nM] | VEGF_ADSC\ECFC Angio CD31 TubeArea IC50/EC50 [2] [nM] | WntCondMedia_Alk Phos C2C12 IC50/EC50 [3] [nM] | hGSK3b LANCE IC50/EC50 [4] [nM] | hJAK2 LANCE IC50/EC50 [5] [nM] | WntCondMedia_bCatenin C2C12 IC50/EC50 [6] [nM] | hKDR LANCE IC50/EC50 [7] [nM] | hp70S6K1 LANCE IC50/EC50 [8] [nM] | VEGF_ADSC\ECFC Angio Hoechst NucArea IC50/EC50 [9] [nM] | Hela CellCycMod PI 2N IC50/EC50 [10] [nM] | Hela CellCycMod PI 4N IC50/EC50 [10] [nM] | Hela CellCycMod PI MI IC50/EC50 [10] [nM] | Hela CellCycMod PI Cell Number IC50/EC50 [10] [nM] | IC50/EC50, hFLT3 LANCE (assay number 35) [1] [nM] | IC50/EC50, VEGF_ADSC\ECFC Angio CD31 TubeArea (assay number 2) [2] [nM] | IC50/EC50, WntCondMedia_Alk Phos C2C12 (assay number 6) [3] [nM] | IC50/EC50, Basal_Viability ATP HT-29 (assay number 28) [11] [nM] | IC50/EC50, hGSK3b LANCE (assay number 34) [4] [nM] | IC50/EC50, hJAK2 LANCE (assay number 33) [5] [nM] | IC50/EC50, WntCondMedia_bCatenin C2C12 (assay number 5) [6] [nM] | other results
1 | CC(=O)[C@]1(O)Cc2c(O)c3c(c(O)c2[C@@H](O[C@H]2C[C@H](N)[C@H](O)[C@H](C)O2)C1)C(=O)c1ccccc1C3=O [NCGC00093976-08] | > 20000 | 20.8 | 503.9 | > 20000 | > 20000 | 100.1 | > 20000 | > 20000 | 538.1 | 11.1 | > 10000 | 659.3 | 14.2 | – | – | – | – | – | – | – | Hela CellCycMod PI S Phase IC50/EC50 ([10]; assay number 15, S phase): > 10000 nM
2 | COC(=O)Nc1nc2ccc(C(=O)C3CC3)cc2[nH]1 [NCGC00262953-01] | – | – | – | – | – | – | – | – | – | – | – | – | – | 6140 | 1191.4 | 683.6 | 1682.3 | 14940 | > 20000 | 348.6 | IC50/EC50, Basal_Viability ATP SNU-C1 (assay number 30) [12]: > 20000 nM; IC50/EC50, Basal_Viability ATP RKO (assay number 29) [13]: 162.2 nM; IC50/EC50, hKDR LANCE (assay number 32) [7]: 15140 nM; IC50/EC50, Basal_Viability ATP HCT116 (assay number 25) [14]: 173.5 nM; IC50/EC50, hp70S6K1 LANCE (assay number 31) [8]: > 20000 nM; IC50/EC50, VEGF_ADSC\ECFC Angio Hoechst NucArea (assay number 3) [9]: > 10000 nM; IC50/EC50, Basal_Viability ATP SW480 (assay number 24) [15]: > 20000 nM; IC50/EC50, Basal_Viability ATP Colo 320 (assay number 27) [16]: 155.6 nM; IC50/EC50, Hela CellCycMod PI 2N (assay number 14) [10]: 417.3 nM; IC50/EC50, Hela CellCycMod PI 4N (assay number 16) [10]: 416.4 nM; IC50/EC50, Hela CellCycMod PI Cell Number (assay number 18) [10]: 296.9 nM; IC50/EC50, Hela CellCycMod PI MI (assay number 17) [10]: 402.4 nM; IC50/EC50, Hela CellCycMod PI S Phase (assay number 15) ([10]; S Phase): > 10000 nM
3 | CC[C@]1(O)C[C@H]2CN(CCc3c([nH]c4ccccc34)[C@@](C(=O)OC)(c3cc4c(cc3OC)N(C=O)[C@H]3[C@@](O)(C(=O)OC)[C@H](OC(C)=O)[C@]5(CC)C=CCN6CC[C@]43[C@@H]65)C2)C1 [NCGC00263543-01] | > 20000 | 6.5 | 5.1 | > 20000 | > 20000 | 4 | > 20000 | > 20000 | > 10000 | 6.2 | 5.9 | 6.1 | 6.5 | – | – | – | – | – | – | – | –
4 | COC(=O)Nc1nc2ccc([S+]([O-])c3ccccc3)cc2[nH]1 (stereo not drawn) [NCGC00095157-05] | – | – | – | – | – | – | – | – | – | – | – | – | – | > 20000 | 288.4 | 559.3 | > 20000 | > 20000 | > 20000 | 468.3 | IC50/EC50, GSK3b inh pretreated_Viability ATP HCT116 (assay number 26) [17]: 1 nM; IC50/EC50, Basal_Viability ATP RKO (assay number 29) [13]: 1 nM; IC50/EC50, hKDR LANCE (assay number 32) [7]: > 20000 nM; IC50/EC50, Basal_Viability ATP HCT116 (assay number 25) [14]: 1 nM; IC50/EC50, hp70S6K1 LANCE (assay number 31) [8]: > 20000 nM; IC50/EC50, VEGF_ADSC\ECFC Angio Hoechst NucArea (assay number 3) [9]: > 10000 nM; IC50/EC50, Basal_Viability ATP DLD-1 (assay number 23) [18]: > 20000 nM; IC50/EC50, Basal_Viability ATP SW480 (assay number 24) [15]: > 20000 nM; IC50/EC50, Hela CellCycMod PI 2N (assay number 14) [10]: 326.3 nM; IC50/EC50, Hela CellCycMod PI 4N (assay number 16) [10]: 331 nM; IC50/EC50, Hela CellCycMod PI Cell Number (assay number 18) [10]: 257.5 nM; IC50/EC50, Hela CellCycMod PI MI (assay number 17) [10]: 241.1 nM
